PMC6058525, “A novel phenolic propanediamine moiety-based lung-targeting therapy for asthma” (Drug Delivery, 2018)
≈ marks a conversion by molar mass, not a printed value. Blank lines part the entries; values can stand above or below the compound they belong to.

Tests used:
A549 cells [1] = assay: Cellular uptake of TPD-Rhein in the presence of transporter inhibitors; format: cell-based, human; conditions: A549 cells preincubated 1 h with inhibitor 189 μM, then TPD-Rhein 18.9 μM 1 h; vs control without inhibitor
Procedure: The A549 cells were seeded in 6-well culture plates (5 × 10^5 cells/well). On the second day, cells were incubated with Rhein or TPD-Rhein solution at increasing concentrations (4.7, 9.3, 18.9 and 37.4 μM, respectively, equivalent to Rhein) at 37 °C for 1 h. Cells were rinsed three times with ice-cold PBS and collected for the determination of intracellular concentration. To explore the cell delivery mechanism of TPD, the cells were precubated with indicated inhibitors for 1 h and then incubated with TPD-Rhein (18.9 μM) for another 1 h. For energy depletion, cells were exposed to Rhein or TPD-Rhein (18.9 μM) for 0.5 h at 37 °C, 4 °C, or in the presence of NaN3 (1 mg/mL) for 1 h. Lysine and L-arginine were substrates of basic amino acid transporters (Zhou et al., [2016]). Pyrilamine was used to indicate pyrilamine-sensitive transporter (Okura et al., [2008]). Spermine and Spermidine were inhibitors of the alkaline polyamine transporter (Grancara et al., [2014]). […] Choline was a substrate of choline transport system (Taguchi et al., [2014]). TPD was performed as a competitive cationic inhibitor. The inhibitor concentrations were 10-fold (189 μM) of the concentration of TPD-Rhein. In the end, cells were rinsed three times with ice-cold PBS and the intracellular concentrations of Rhein or TPD-Rhein were measured by LC-MS/MS. Cellular uptake was expressed as the amount (nmol/L) of Rhein or TPD-Rhein per 1 mg of total cellular protein. The total protein concentration of cell lysates was measured using the BCA protein assay kit (Pierce, Appleton, WI).

[2] = Aqueous solubility in PBS; format: physicochemical; conditions: 25 °C, thermodynamic from solid
Procedure: The solubilities of Rhein and TPD-Rhein were determined in PBS with varying pH values (pH = 2 and 7.4) by equilibrating an excess of solid compound in 5 mL of buffer at 25 °C for 12 h. The samples were filtered through a 0.22 µm Millipore filter, diluted in methanol, and analyzed by LC-MS/MS. The chemical and enzymatic stabilities of TPD-Rhein were assessed in PBS with varying pH values (pH = 2, 4.5, 6.8, and 7.4), freshly prepared rat plasma and lung homogenates (diluted with 0.9% physiological saline) from rats at 37 °C, respectively. At predetermined time intervals, samples were immediately diluted by an equal amount of methanol to precipitate protein, vortexed for 5 min and centrifuged at 13,000 rpm for 10 min. The supernatant was then subjected to LC-MS/MS. Stability studies were performed in triplicate.

A549 cells [3] = assay: Cell uptake study in A549 cells (LC-MS/MS); format: cell-based, human; conditions: 18.9 μM, NaN3 1 mg/mL
Procedure: The A549 cells were seeded in 6-well culture plates (5 × 10^5 cells/well). On the second day, cells were incubated with Rhein or TPD-Rhein solution at increasing concentrations (4.7, 9.3, 18.9 and 37.4 μM, respectively, equivalent to Rhein) at 37 °C for 1 h. Cells were rinsed three times with ice-cold PBS and collected for the determination of intracellular concentration. To explore the cell delivery mechanism of TPD, the cells were precubated with indicated inhibitors for 1 h and then incubated with TPD-Rhein (18.9 μM) for another 1 h. For energy depletion, cells were exposed to Rhein or TPD-Rhein (18.9 μM) for 0.5 h at 37 °C, 4 °C, or in the presence of NaN3 (1 mg/mL) for 1 h. Lysine and L-arginine were substrates of basic amino acid transporters (Zhou et al., [2016]). Pyrilamine was used to indicate pyrilamine-sensitive transporter (Okura et al., [2008]). Spermine and Spermidine were inhibitors of the alkaline polyamine transporter (Grancara et al., [2014]). […] In the end, cells were rinsed three times with ice-cold PBS and the intracellular concentrations of Rhein or TPD-Rhein were measured by LC-MS/MS. Cellular uptake was expressed as the amount (nmol/L) of Rhein or TPD-Rhein per 1 mg of total cellular protein. The total protein concentration of cell lysates was measured using the BCA protein assay kit (Pierce, Appleton, WI).

[4] = Plasma pharmacokinetics after i.v. injection; format: in vivo; conditions: rat, iv, rats, 10 mg/kg Rhein equivalent
Procedure: Rhein or TPD-Rhein was injected through the tail vein of rats. For each preparation and sampling time point, five rats were treated with a single dose of Rhein at the dose of 10 mg/kg or TPD-Rhein at 17.2 mg/kg (dose equivalent to 10 mg/kg Rhein), respectively. The rats were scarified at predetermined time intervals (0.083, 0.25, 0.5, 1, 2, 4, 8, 16, and 24 h) after administration. The whole blood was quickly collected into heparinized tubes and centrifuged at 5000 rpm for 5 min to obtain plasma. Then, the tissues (heart, liver, spleen, lung, kidney, and brain) were rinsed with saline, weighed and homogenized with cold physiological saline (twice the weight of tissues). For Rhein treated rats, the content of Rhein in the homogenates was measured by LC-MS/MS. For TPD-Rhein treated rats, the samples were injected to LC-MS/MS to determine the concentration of free Rhein released and TPD-Rhein, respectively. The content of TPD-Rhein in tested tissues at different time point was the sum of TPD-Rhein and free Rhein released. The biodistribution of the two drugs in each organ was normalized by the weight of the selected tissue.
The pharmacokinetic data were calculated using the DAS software version 2.0 (Mathematical Pharmacology Professional Committee of China, Shanghai, China). The relative uptake efficiency (Re) and concentration efficiency (Ce) were used to evaluate the lung-targeting properties of TPD-Rhein. The values of Re and Ce were calculated as follows: Relung=(AUC0-t, lung)TPD-Rhein/(AUC0-t, lung)Rhein Celung=(Cmax, lung)TPD-Rhein/(Cmax, lung)Rhein

L929 cells = assay: Cell uptake in L929 cells; format: cell-based, mouse
From the text: (§1) Male Wistar rats (body weight: 200 ± 20 g) were supplied by the Experimental Animal Center of Zhengzhou University (Zhengzhou, China). Rats were maintained in a germ-free environment and allowed free access to food and water for at least one week before experiments. All animal experiments were approved by the Institutional Animal Care and Ethics Committee of Zhengzhou University, according to the requirements of the National Act on the use of experimental animals (PR China). A549 cells (human pulmonary alveolar epithelial cells), L929 cells (mouse fibroblast cells), and Hela cells (human carcinoma cervical cells) were obtained from ATCC (Manassas, VA). The cells were cultured in DMEM with high glucose (GIBCO, Big Cabin, OK) supplemented with 20% fetal bovine serum and 1% penicillin/streptomycin. Routinely, cells were maintained at 37 °C in a humidified atmosphere containing 5% CO2, and the cell medium was changed every other day. The A549 cells were seeded in 6-well culture plates (5 × 10^5 cells/well). […] In the end, cells were rinsed three times with ice-cold PBS and the intracellular concentrations of Rhein or TPD-Rhein were measured by LC-MS/MS. Cellular uptake was expressed as the amount (nmol/L) of Rhein or TPD-Rhein per 1 mg of total cellular protein. The total protein concentration of cell lysates was measured using the BCA protein assay kit (Pierce, Appleton, WI).

[5] = system: OVA-induced asthma model in rats; assay: Therapeutic effect on ovalbumin-induced asthma model; format: in vivo, rat; conditions: OVA-challenged asthmatic rats, i.v. Rhein 4.5 mg/kg/day or TPD-Rhein 7.7 mg/kg/day
Procedure: Wistar rats were used to evaluate the efficacy of Rhein and TPD-Rhein on asthma. Forty healthy male rats (200 ± 20 g) were randomly divided into four groups (n = 10). Asthma model in rats was established according to a previously reported method with slight modifications (Lu et al., [2015]). Briefly, on day 0, rats were systemically sensitized with an intraperitoneal injection with 1 mL of 10% ovalbumin (OVA). Two weeks after the sensitization, the rats were exposed to aerosolized OVA for 30 min of cycling three times per week for 14 weeks. The concentration of OVA was increased from 2% for 8 weeks to 4% for remaining 6 weeks to maintain the asthma condition. From weeks 3–16, the OVA-sensitized rats in the treatment groups were given normal saline, Rhein, or TPD-Rhein intravenously before OVA inhalation, at doses of 4.5 mg/kg/day for Rhein and 7.7 mg/kg/day for TPD-Rhein (dose equivalent to free drug treatment), respectively. The rats in the normal group received with the same volume of normal saline instead. One day after the last ultrasonic atomization, all rats were anesthetized by 3% sodium pentobarbital solution at a dose of 45 mg/kg. Then, 0.5 mL of intracardiac blood of each rat was collected. The histamine level and Interleukin-5 (IL-5) level in the supernatant serum were determined using Rat HIS ELISA kit (R&D Company, Minneapolis, MN) and Rat IL-5 ELISA Kit (R&D Company, Minneapolis, MN) according to the manufacturer’s instructions, respectively. Lungs were removed from sacrificed rats and lavaged to determine the IL-5 level using the corresponding kit. In the end, lungs were fixed in 4% buffered formalin, paraffin embedded and sectioned for hematoxylin and eosin staining (H&E) for conventional histological analysis.

Hela cells = assay: Cell uptake in Hela cells; format: cell-based, human
From the text: as §1

[6] = In vitro cytotoxicity, MTT assay; format: cell-based; conditions: human, A549 cells, under tested concentrations, read-out: A549 cells remaining viable
Procedure: To evaluate the in vitro cytotoxicity of Rhein and TPD-Rhein, MTT (3-(4, 5-dimethylthiazol-2-yl)-2, 5-diphenyltetrazolium bromide) assays were performed using A549 cell lines. Briefly, A549 cells were seeded in 96-well culture plates at a density of 1 × 10^4 cells/well and incubated at 37 °C for two days. On the day of administration, the cells were treated with different concentrations of Rhein solution, TPD-Rhein solution or TPD solution (dispersed in serum-free culture medium) for 4 h. An aliquot of 20 μL MTT solution (5 mg/mL) were added into each well and incubated at 37 °C for another 4 h. After that, all medium was removed and cells were rinsed with phosphate-buffered saline (PBS), and the formed dark blue formazan crystals in each well were dissolved in 150 μL DMSO. The absorbance of each individual well was read on a microplate reader (Thermo Scientific, Waltham, MA, Varioskan Flash) at 570 nm wavelength. Cells not exposed to samples were used as control (=100% viability).

SMILES: NCCCC[C@H](N)C(=O)O [L-lysine]
effect of inhibitor on cellular uptake of TPD-Rhein (A549 cells [1]): no obvious impact

SMILES: NCCCCNCCCN [spermidine]
effect of inhibitor on cellular uptake of TPD-Rhein (A549 cells [1]): no obvious impact

SMILES: CN(C)CCCN1c2ccccc2CCc2ccccc21 [imipramine]
effect of inhibitor on cellular uptake of TPD-Rhein (A549 cells [1]): significantly reduced

SMILES: C[N+](C)(C)C[C@H](O)CC(=O)[O-] [L-carnitine]
effect of inhibitor on cellular uptake of TPD-Rhein (A549 cells [1]): no obvious impact

solubility at 12 h ([2]; pH 2, aqueous buffer, PBS pH 2.0, 25 °C): 3.56 ± 0.2 µg/mL (≈ 12.5 µM) | solubility at 12 h ([2]; pH 7.4, aqueous buffer, PBS pH 7.4, 25 °C): 513 ± 32 µg/mL (≈ 1800 µM) | intracellular amount at 4 °C or in the presence of NaN3 versus 37 °C (A549 cells [3]): no substantial difference | AUC(0-t) [4]: 206 ± 10.6 µM·h | Cmax [4]: 308 ± 3.89 µM | clearance ([4]; read-out: CLZ (converted)): 2.83 mL/min/kg | Vd ([4]; read-out: VZ): 0.47 ± 0.02 L/kg | uptake compared with A549 cells (L929 cells): slight decrease | uptake compared with A549 cells (Hela cells): slight decrease
SMILES: O=C(O)c1cc(O)c2c(c1)C(=O)c1cccc(O)c1C2=O [Rhein, 4,5-dihydroxyanthraquinone-2-carboxylic acid]
bronchoalveolar lavage fluid IL-5 level ([5]; vs asthmatic model group): no significant differences | plasma (serum) IL-5 level ([5]; vs asthmatic model group): no significant differences | lung histology (H&E) ([5]; vs asthmatic model rats): no significant improved anti-asthma efficacy

SMILES: C[N+](C)(C)CCO [choline]
effect of inhibitor on cellular uptake of TPD-Rhein (A549 cells [1]): no obvious impact

SMILES: NCCCNCCCCNCCCN [spermine]
effect of inhibitor on cellular uptake of TPD-Rhein (A549 cells [1]): no obvious impact

SMILES: CC[N+](CC)(CC)CC.[Cl-] [Tetraethylammonium (TEA) chloride]
effect of inhibitor on cellular uptake of TPD-Rhein (A549 cells [1]): significantly reduced

SMILES: N=C(N)NCCC[C@H](N)C(=O)O [L-arginine]
effect of inhibitor on cellular uptake of TPD-Rhein (A549 cells [1]): no obvious impact

SMILES: COc1ccc(CN(CCN(C)C)c2ccccn2)cc1 [pyrilamine]
effect of inhibitor on cellular uptake of TPD-Rhein (A549 cells [1]): no obvious impact

SMILES: CN(C)CCCN(C)Cc1ccc(O)cc1 [TPD, N,N,N’-trimethyl-N’-(4-hydroxyl-benzyl)-1,3-propanediamine]
viability at 4 h [6]: > 90% | effect of inhibitor on cellular uptake of TPD-Rhein (A549 cells [1]): abolish
